Results on nine compounds are retold here after patent US20210386752A1, “Uses of Electron Transport Chain Complex I or Complex II Inhibitors in Treating Cancer, Combination Therapies, and Diagnostic Methods Related Thereto” (Emory University, priority 2020, published 2021).

In series [1] the test system is venetoclax-resistant MM lines. In words: Venetoclax sensitization of resistant MM lines by ETC inhibitor cotreatment, viability by AnnexinV/DAPI staining. It counts as cell-based. The method, then:
Cell viability assessed by AnnexinV/DAPI staining.
Given the unique role of Complex II in directly connecting the TCA cycle to the ETC, the impact of selectively inhibiting either the SDH or SQR activities of Complex II on venetoclax sensitivity was tested. The venetoclax sensitization effects of TTFA (SQR inhibitor) or 3NPA (SDH inhibitor) were tested on eight venetoclax-resistant MM lines (FIG. 3A-3H). 3NPA is a structural analog of succinate, which binds irreversibly with SDH inhibiting FAD reduction and fumarate production while TTFA is a direct Qp site inhibitor. […] The efficacy of the TTFA-venetoclax cotreatment strategy was also tested in a colony-forming unit assay. MM lines (L363 and KMS11) were cultured in an agar matrix with single agents or the combination.
To further inquire whether Complex I inhibition could also sensitize MM cells to venetoclax, a Complex I inhibitor was tested ([…]).

Series [2] concerns bone marrow plasma cells and memory B cells. Particulars: murine immune system; cited from earlier work.
For a further series, the system named is MM. The experiment in a line: IACS-010759 in combination with anti-myeloma agents, cell death in MM cells. It counts as cell-based.
Another series relates to MCL-1. In words: MCL-1 expression in MM cells. It counts as cell-based. Particulars: KMS12PE.
The subject of series [3] is non-MM cells contained within the aspirate. The method, then:
Bone marrow aspirate samples from 50 MM patients were treated with three doses of venetoclax (0.01, 0.1 and 0.5 μM) or TTFA (100 μM), or the combination for 24 h and cell death was assessed by AnnexinV staining.
The efficacy of IACS-010759 in sensitizing was tested in […] patient samples to venetoclax.

Series [4] deals with CD38+ CD45− gated MM cells from myeloma patient bone marrow aspirates. The experiment in a line: Ex vivo venetoclax sensitivity of myeloma patient samples, Annexin V staining. It counts as cell-based, human. The following applies: nine patient samples, IACS-010759.
Description: CD38-PE and CD45-APC-Cy7 were used to gate myeloma cells. n=50 biological independent samples.
Bone marrow aspirate samples from 50 MM patients were treated with three doses of venetoclax (0.01, 0.1 and 0.5 μM) or TTFA (100 μM), or the combination for 24 h and cell death was assessed by AnnexinV staining. […] A venetoclax ICso <0.1 μM is characterized as a sensitive sample.
Bone marrow aspirates or peripheral blood samples from consenting myeloma patients were diluted to 25 mL with PBS and over laid on lymphocyte separation media. Following centrifugation, the collected buffy coat was washed with PBS and resuspended in culture medium. Cells subject to various treatments were stained with anti-CD38-phyocerythrin and anti-CD45-allophycocyanin-Cy7 to identify MM cells. CD138+ cells were purified using MACS CD138+ human microbeads. IC50S of venetoclax alone or in combination with TTFA/IACS-010759 in myeloma samples were calculated using nonlinear regression (curve-fit) analysis under agonist vs. normalized response with variable slope.
The test system of the next series is ATF4, NOXA. The experiment in a line: Immunoblot of whole cell lysates for ATF4 and NOXA. The following applies: 25 nM IACS-010759, 24 h. It counts as cell-based.
The next series deals with AML. Particulars: targeting Complex II; cited from earlier work.
A further series concerns L363, KMS11 and KMS21BM. The experiment in a line: ATP levels after ETC complex III, IV, V inhibition. It counts as cell-based. Particulars: after 24 h, at the doses used.
The next series relates to MM patients. The following applies: cited from earlier work.
The test system of another series is MM cell lines. The experiment in a line: Cell death of MM cell lines with single-agent venetoclax, AnnexinV/DAPI flow cytometric staining. It counts as cell-based. Particulars: 0.5 μM venetoclax, 24 h, panel of MM lines. As to the method: Percent live normalized to vehicle control, with cell lines grouped by sensitivity. n=3 independent experiments.
Differential venetoclax sensitivity was assessed in a panel of MM lines. […] The pattern of increased sensitivity of these cell lines was selective for venetoclax and not detected with other standard myeloma therapeutics i.e. bortezomib and melphalan or sensitivity to the MCL-1 inhibitor […] as reported for the KMS12BM, KMS12PE, KMS11, MM.1 S, JJN3, RPMI-8226 and L363 lines.
(In general: In flow cytometry, cells or beads pass a laser one at a time.)

Where [5] appears, read: L363, KMS11, KMS21BM, doses reducing ATP by about 50% after 24 h.

Like-named read-outs stand apart in the source and are kept apart here.

Description for L363, KMS11 and KMS21BM: Experiments were performed to determine whether inhibition of Complex III, IV and V could also sensitize resistant MINI to venetoclax.

In the case of `O=C(O)CC[N+](=O)[O-]` [3NPA], the “sensitivity to venetoclax on cotreatment” value in series [1] (eight venetoclax-resistant MM lines, 24 h) was “less effective compared to TTFA”.
Regarding `CN(C)CC[C@H](CSc1ccccc1)Nc1ccc(S(=O)(=O)NC(=O)c2ccc(N3CCN(Cc4ccccc4-c4ccc(Cl)cc4)CC3)cc2)cc1[N+](=O)[O-]` [ABT-737], in [2], the “effect on plasma cells and B cells” value was “inhibits the establishment of newly arising bone marrow plasma cells and memory B cells with no effect on pre-existing plasma cells, or germinal center B cells”.
For the compound `Cc1nc(-c2nc(-c3ccc(OC(F)(F)F)cc3)no2)nn1Cc1cccc(N2CCC(S(C)(=O)=O)CC2)c1` [IACS-010759, 5-(5-methyl-1-(3-(4-(methylsulfonyl)piperidin-1-yl)benzyl)-1H-1,2,4-triazol-3-yl)-3-(4-(trifluoromethoxy)phenyl)-1,2,4-oxadiazole], in the series on MM (24 hr dose response), the “effect on carfilzomib (CFZ) response” value is listed as “antagonizes MM to proteasome inhibitor carfilzomib”. In the series on MM (L363, 24 hr treatment), the “effect on bortezomib induced cell death” value is given as “antagonizes MM to proteasome inhibitor bortezomib induced cell death” and the “effect on melphalan induced cell death” value was “sensitizes myeloma to melphalan induced cell death”. Also, in the series on MM (MM), the “effect on efficacy of dexamethasone + venetoclax” value is listed as “increases efficacy of dexamethasone (Dex) +Ven” and the “effect on sensitivity to dexamethasone” value was “increases sensitivity of MM to Dex”. Besides, the “sensitization to venetoclax (ABT-199)” value with MM (t(11;14) MM, KMS12PE, 24 hr Ven treatment) is “sensitizes t(11;14) MM to venetoclax”. The MCL-1 expression entry in the series with MCL-1 is on record as “reduces MCL-1”. Also, in series [3], the “viability of non-MM cells” value is “minimal impact on the viability of non-MM cells”. Besides, the “IC50 of venetoclax on cotreatment” value in series [1] (25 nM IACS-010759, tested cell lines) is recorded as “significantly reduced the IC50 of venetoclax”. Moreover, in series [1] (KMS11, L363, KMS21BM, increasing doses of IACS-010759, 24 h), the “sensitization to 0.5 μM venetoclax” value is “sensitized cells to 0.5 μM venetoclax”. Moreover, the sensitization to venetoclax result in series [1] (KMS21BM, TTFA at 100 μM) is recorded as “enough to sensitize KMS21BM to venetoclax”. In [4], the “samples with >50% reduction in the IC50 of venetoclax” value was “five of the samples” and the “samples with increased venetoclax sensitivity” value is reported as “Eight out of nine samples showed increased sensitivity”. The “protein expression of ATF4, NOXA” value in the series on ATF4, NOXA was “induction of ATF4 and NOXA”.
Take `Nc1ncn([C@@H]2O[C@H](CO)[C@@H](O)[C@H]2O)c(=O)n1` [azacitidine]: the venetoclax sensitivity entry with AML is “induced venetoclax sensitivity”.
On to `CC[C@H]1/C=C/C=C/C[C@@H](C)[C@H](O)[C@@](C)(O)C(=O)[C@@H](C)[C@H](O)[C@@H](C)C(=O)[C@@H](C)[C@H](O)[C@@H](C)/C=C/C(=O)O[C@@H]2[C@H](C)[C@H](CC1)O[C@]1(CC[C@H](C)[C@H](C[C@@H](C)O)O1)[C@H]2C` [oligomycin], for which the sensitization to venetoclax entry in series [1] (setting [5]) was “sensitized L363, KMS11 and KMS21BM to venetoclax”. Moreover, the “reduction of ATP levels” value with L363, KMS11 and KMS21BM is given as “about 50%”.
For the compound `C/C=C(\C)[C@H](O)[C@H](C)/C=C(C)/C=C/C/C(C)=C/Cc1nc(OC)c(OC)c(O)c1C` [piericidin], the sensitization to venetoclax result in series [1] (resistant MM cell lines, Complex I inhibitor) is “also sensitized resistant MM cell lines to venetoclax”.
As for `[N-]=[N+]=[N-]` [sodium azide], the “reduction of ATP levels” value in the series with L363, KMS11 and KMS21BM is on record as “about 50%”.
For `CC1(C)CCC(CN2CCN(c3ccc(C(=O)NS(=O)(=O)c4ccc(NCC5CCOCC5)c([N+](=O)[O-])c4)c(Oc4cnc5[nH]ccc5c4)c3)CC2)=C(c2ccc(Cl)cc2)C1` [venetoclax, 2-((1H-pyrrolo[2,3-b]pyridin-5-yl)oxy)-4-(4-((4′-chloro-5,5-dimethyl-3,4,5,6-tetrahydro-[1,1′-biphenyl]-2-yl)methyl)piperazin-1-yl)-N-((3-nitro-4-(((tetrahydro-2H-pyran-4-yl)methyl)amino)phenyl)sulfonyl)benzamide], the “fraction of MM patients responding to single agent” value with MM patients (all MM patients) is recorded as “approximately 7%”. In addition, the “fraction of patients venetoclax sensitive” value with MM patients (non-t(11;14) patients) is listed as less than 6%; in the series on MM patients (t(11;14) patients), roughly 40%. The “cytotoxicity (cell death)” value with MM cell lines is “significant cytotoxicity primarily in t(11;14) lines”.
For the compound antimycin, the sensitization to venetoclax entry in [1] (setting [5]) is “sensitized L363, KMS11 and KMS21BM to venetoclax”. Besides, the “reduction of ATP levels” value with L363, KMS11 and KMS21BM was “about 50%”.
